Assay [1] concerns papillary muscles of a right ventricle. The assay is described as follows: Pharmacological Test 1: contraction of isolated right ventricular papillary muscles upon electric stimulation (inotropic effect). As to conditions: 3×10^-5 M; percentage of increment of contractile force, isoprotelenol (1×10^-8 M) = 100%; 1 Hz stimulation, 30° C. On the set-up: species or system male Hartley guinea pig. As to the method:
(§1) Nos. of the compounds in the pharmacological tests 1 and 2 correspond to those in Examples referred to hereinafter.
(§2) A heart was removed from a male Hartley guinea pig (having a body weight of about 400 g or so) and a right atrium and papillary muscles of a right ventricle were separated from the removed heart. These preparations were suspended in 15 ml of Magnus' bath under load of 0.5 g (papillary muscles) or 1.0 g (right atria). Contraction of papillary muscles upon electric stimulation (1 Hz, 5 msec, 1.5×threshold voltage) and spontaneous contraction of the right atria were recorded through a transducer (manufactured by Orientec, T7-8-240) by a polygraph system (manufactured by NIHONKOHDEN, RMP-6008 and WT-685G).
(§3) Krebs-Henseleit solution was used as nutritive liquid bubbled with mixed gases of 95% O2 with 5% CO2 at 30° C. The value of inotropic effect is a percentage of increment of contractile force by samples when that by isoprotelenol (1×10^-8 M) is considered to be 100%. The value of chronotropic effect is a percentage of atrial rate after the injection of samples when the atrial rate before the injection is considered to be 100%.

A further assay has as its system right atria. Briefly: Pharmacological Test 1: spontaneous contraction of isolated right atria (chronotropic effect). Also noted: species or system male Hartley guinea pig. As to conditions: Cavia porcellus; 3×10^-5 M; percentage of atrial rate after injection, rate before injection = 100%; 30° C. As to the method:
as §1, §2, §3

Consider `O=C1NN=C(C2=CCN(CC(O)c3ccc4ccccc4c3)CC2)CS1` (centres unmarked) [Compound 69, 5-[1-[2-Hydroxy-2-(2-naphthyl)ethyl]-1,2,5,6-tetrahydropyrid-4-yl]-3H, 6H-1,3,4-thiadiazin-2-one], for which, in assay [1], the “Inotropic Effect” value is listed as 28.6%. Also, the activity at 30 µM in the assay with right atria amounted to 79.7%.
On to `O=C1CSC(C2=CCN(CC(O)c3ccc(F)cc3)CC2)=NN1` (centres unmarked) [Compound 35, 2-[1-[2-(4-Fluorophenyl)-2-hydroxyethyl]-1,2,5,6-tetrahydropyrid-4-yl]-4H,6H-1,3,4-thiadiazin-5-one], for which the “Inotropic Effect” value in assay [1] worked out at 63.5%. Moreover, the activity at 30 µM in the assay on right atria stood at 90.7%.
Turning to `O=C1CCC(C2=CCN(CC(O)c3ccc(F)cc3)CC2)=NN1` (centres unmarked) [Compound 51, 6-[1-[2-(4-Fluorophenyl)-2-hydroxyethyl]-1,2,5,6-tetrahydropyrid-4-yl]-4,5-dihydropyridazin-3 (2H)-one], the “Inotropic Effect” value in assay [1] is listed as 36.8%. Besides, in the assay with right atria, the activity at 30 µM turned out to be 91.4%.
The corresponding values for `O=C1CSC(C2=CCN(CC(O)c3cccc(Cl)c3)CC2)=NN1` (centres unmarked) [Compound 12, 2-[1-[2-(3-Chlorophenyl)-2-hydroxyethyl]-1,2,5,6-tetrahydropyrid-4-yl]-4H,6H-1,3,4-thiadiazin-5-one] are 51.0% and 93.8%.
`O=C1CNC(C2=CCN(CC(O)c3ccc([N+](=O)[O-])cc3)CC2)=NN1` (centres unmarked) [Compound 60, 4,5-Dihydro-3-[1-[2-hydroxy-2-(4-nitrophenyl)ethyl]-1,2,5,6-tetrahydropyrid-4-yl]-1,2,4-triazin-6(1H)-one]: the “Inotropic Effect” value in assay [1] is 43.8%. In the assay with right atria, the activity at 30 µM amounted to 92.6%.
For `O=C1CSC(C2=CCN(CC(O)c3cccc(O)c3)CC2)=NN1` (centres unmarked) [Compound 27, 2-[1-[2-Hydroxy-2-(3-hydroxyphenyl)ethyl]-1,2,5,6-tetrahydropyrid-4-yl]-4H,6H-1,3,4-thiadiazin-5-one] the same measures were 63.1% and 98.7%.
For `O=C1CSC(C2=CCN(CC(O)c3ccc(Cl)cc3Cl)CC2)=NN1` (centres unmarked) [Compound 17, 2-[1-[2-(2,4-Dichlorophenyl)-2-hydroxyethyl]-1,2,5,6-tetrahydropyrid-4-yl]-4H,6H-1,3,4-thiadiazin-5-one], the “Inotropic Effect” value in assay [1] is recorded as 45.0%. The activity at 30 µM in the assay with right atria is 85.8%.
`O=C1CNC(C2=CCN(CC(O)c3ccc(Cl)cc3)CC2)=NN1` (centres unmarked) [Compound 57, 3-[1-[2-(4-Chlorophenyl)-2-hydroxyethyl]-1,2,5,6-tetrahydropyrid-4-yl]-4,5-dihydro-1,2,4-triazin-6 (1H)-one]: the “Inotropic Effect” value in assay [1] is 46.8%. The activity at 30 µM with right atria turned out to be 94.9%.
For `N#Cc1ccc(C(O)CN2CC=C(C3=NNC(=O)SC3)CC2)cc1` (centres unmarked) [Compound 47, 5-[1-[2-(4-Cyanophenyl)-2-hydroxyethyl]-1,2,5,6-tetrahydropyrid-4-yl]-3H,6H-1,3,4-thiadiazin-2-one] the same measures were 81.4% and 78.2%.
`O=C1CCC(C2=CCN(CC(O)c3ccc([N+](=O)[O-])cc3)CC2)=NN1` (centres unmarked) [Compound 53, 4,5-Dihydro-6-[1-[2-hydroxy-2-(4-nitrophenyl)ethyl]-1,2,5,6-tetrahydropyrid-4-yl]pyridazin-3 (2H)-one]: the “Inotropic Effect” value in assay [1] came out at 102.9%. Besides, the activity at 30 µM with right atria stood at 87.8%.
As for `COc1ccc(C(CN2CC=C(C3=NNC(=O)CS3)CC2)OC)cc1` (centres unmarked) [Compound 70, 2-[1-[2-Methoxy-2-(4-methoxyphenyl)ethyl]-1,2,5,6-tetrahydropyrid-4-y1]-4H,6H-1,3,4-thiadiazin-5-one], the “Inotropic Effect” value in assay [1] is 56.0%. In the assay with right atria, the activity at 30 µM worked out at 99.2%.
For `O=C1NN=C(C2=CCN(CC(O)c3ccc([N+](=O)[O-])cc3)CC2)CS1` (centres unmarked) [Compound 45, 5-[1-[2-Hydroxy-2-(4-nitrophenyl)ethyl]-1,2,5,6-tetrahydropyrid-4-yl]-3H,6H-1,3,4-thiadiazin-2-one], the “Inotropic Effect” value in assay [1] is 99.5%. Besides, in the assay on right atria, the activity at 30 µM was determined as 79.1%.
With `O=C1NN=C(C2=CCN(CC(O)c3cccc(O)c3)CC2)CS1` (centres unmarked) [Compound 44, 5-[1-[2-Hydroxy-2-(3-hydroxyphenyl)ethyl]-1,2,5,6-tetrahydropyrid-4-yl]-3H,6H-1,3,4-thiadiazin-2-one], the “Inotropic Effect” value in assay [1] is recorded as 39.9%. Also, the activity at 30 µM with right atria was found to be 101%.
Take `N#Cc1ccc(C(O)CN2CC=C(C3=NNC(=O)CN3)CC2)cc1` (centres unmarked) [Compound 64, 3-[1-[2-(4-Cyanophenyl)-2-hydroxyethyl]-1,2,5,6-tetrahydropyrid-4-yl]-4,5-dihydro-1,2,4-triazin-6(1H)-one]: the “Inotropic Effect” value in assay [1] is listed as 23.8%. Also, in the assay with right atria, the activity at 30 µM was determined as 93%.
As for `O=C1NN=C(C2=CCN(CC(O)c3ccc(Cl)cc3)CC2)CS1` (centres unmarked) [Compound 42, 5-[1-[2-(4-Chlorophenyl)-2-hydroxyethyl]-1,2,5,6-tetrahydropyrid-4-yl]-3H,6H-1,3,4-thiadiazin-2-one], the “Inotropic Effect” value in assay [1] came to 71.0%. Moreover, in the assay on right atria, the activity at 30 µM worked out at 85.9%.
In the case of `O=C1CNC(c2ccncc2)=NN1` [d, 4,5-Dihydro-3-(4-pyridyl)-1,2,4-triazin-6(1H)-one, reference compound], in assay [1], the “Inotropic Effect” value came out at 4.6%. The activity at 30 µM in the assay on right atria is 112%.
As for `O=C1CSC(C2=CCN(CC(O)c3ccccc3[N+](=O)[O-])CC2)=NN1` (centres unmarked) [Compound 29, 2-[1-[2-Hydroxy-2-(2-nitrophenyl)ethyl]-1,2,5,6-tetrahydropyrid-4-yl]-4H,6H-1,3,4-thiadiazin-5-one], in assay [1], the “Inotropic Effect” value is given as 79.3%. Also, the activity at 30 µM in the assay with right atria stood at 101%.
On to `O=C1CSC(c2ccncc2)=NN1` [a, 2-(4-Pyridyl)-4H,6H-1,3,4-thiadiazin-5-one, reference compound], for which, in assay [1], the “Inotropic Effect” value stood at 22.2%. For the same molecule, the activity at 30 µM with right atria came to 159%.
As for `O=C1CCC(C2=CCN(CC(O)c3ccccc3C(F)(F)F)CC2)=NN1` (centres unmarked) [Compound 54, 4,5-Dihydro-6-[1-[2-hydroxy-2-[2-(trifluoromethyl)phenyl]ethyl]-1,2,5,6-tetrahydropyrid-4-yl]pyridazin-3 (2H) -one], in assay [1], the “Inotropic Effect” value turned out to be 25.2%. Moreover, in the assay with right atria, the activity at 30 µM came out at 97.3%.
`O=C1CCC(c2ccncc2)=NN1` [c, 4,5-Dihydro-6-(4-pyridyl)-pyridazin-3(2H)-one, reference compound]: the “Inotropic Effect” value in assay [1] is listed as 7.3%. For the same molecule, in the assay on right atria, the activity at 30 µM stood at 110%.
In the case of `O=C1CSC(C2=CCN(CC(O)c3ccc(Cl)c(Cl)c3)CC2)=NN1` (centres unmarked) [Compound 18, 2-[1-[2-(3,4-Dichlorophenyl)-2-hydroxyethyl]-1,2,5,6-tetrahydropyrid-4-yl]-4H,6H-1,3,4-thiadiazin-5-one], the “Inotropic Effect” value in assay [1] was determined as 52.2%. In the assay with right atria, the activity at 30 µM amounted to 97.8%.
As to `O=C1NN=C(C2=CCN(CC(O)c3cccc(C(F)(F)F)c3)CC2)CS1` (centres unmarked) [Compound 48, 5-[1-[2-Hydroxy-2-[3-(trifluoromethyl)phenyl]ethyl]-1,2,5,6-tetrahydropyrid-4-yl]-3H,6H-1,3,4-thiadiazin-2-one], in assay [1], the “Inotropic Effect” value is on record as 45.4%. For the same molecule, the activity at 30 µM with right atria was 77.7%.
For `O=C1CSC(C2=CCN(CC(O)c3cccc([N+](=O)[O-])c3)CC2)=NN1` (centres unmarked) [Compound 30, 2-[1-[2-Hydroxy-2-(3-nitrophenyl)ethyl]-1,2,5,6-tetrahydropyrid-4-yl]-4H,6H-1,3,4-thiadiazin-5-one] the same measures were 113.9% and 100%.
For the molecule `Cc1cccc(C(O)CN2CC=C(C3=NNC(=O)CS3)CC2)c1` (centres unmarked) [Compound 20, 2-[1-[2-Hydroxy-2-(3-methylphenyl)ethyl]-1,2,5,6-tetrahydropyrid-4-yl]-4H,6H-1,3,4-thiadiazin-5-one], in assay [1], the “Inotropic Effect” value is given as 65.7%. The activity at 30 µM with right atria was found to be 87.5%.
With `Cc1ccc(C(O)CN2CC=C(C3=NNC(=O)CS3)CC2)cc1` (centres unmarked) [Compound 21, 2-[1-[2-Hydroxy-2-(4-methylphenyl)ethyl]-1,2,5,6-tetrahydropyrid-4-yl]-4H,6H-1,3,4-thiadiazin-5-one], the “Inotropic Effect” value in assay [1] is listed as 92.6%. Besides, the activity at 30 µM in the assay on right atria amounted to 84.5%.
`O=C1NN=C(C2=CCN(CC(O)c3ccccc3)CC2)CS1` (centres unmarked) [Compound 40, 5-[1-(2-Hydroxy-2-phenylethyl)-1,2,5,6-tetrahydropyrid-4-yl]-3H,6H-1,3,4-thiadiazin-2-one]: in assay [1], the “Inotropic Effect” value is listed as 35.3%. In addition, the activity at 30 µM in the assay with right atria is 98.1%.
The corresponding values for `COc1ccc(OC)c(C(O)CN2CC=C(C3=NNC(=O)CS3)CC2)c1` (centres unmarked) [Compound 8, 2-[1-[2-Hydroxy-2-(2,5-dimethoxyphenyl)ethyl]-1,2,5,6-tetrahydropyrid-4-yl]-4H,6H-1,3,4-thiadiazin-5-one] are 50.4% and 89%.
As to `COc1cccc(C(O)CN2CC=C(C3=NNC(=O)CS3)CC2)c1` (centres unmarked) [Compound 7, 2-[1-[2-Hydroxy-2-(3-methoxyphenyl)ethyl]-1,2,5,6-tetrahydropyrid-4-yl]-4H,6H-1,3,4-thiadiazin-5-one], the “Inotropic Effect” value in assay [1] was found to be 54.0%. Also, the activity at 30 µM in the assay with right atria amounted to 95.2%.
